Results taken from patent US7601717B2, “Pterin analogs” (BioMarin Pharmaceutical Inc., priority 2008, dated 2009).
Counter-ions that a name gives are not always drawn. Like-named read-outs stand apart in the source and are kept apart here.

How the values were obtained:
[1] = system: human umbilical vein endothelial cells (HUVEC); assay: Nitric oxide production (nitrite+nitrate) in NAS-treated HUVEC; type: cell-based; conditions: 5-22 hours treatment
Method: Cultured human umbilical vein endothelial cells (HUVEC) were pretreated with 3 mM N-acetylserotonin (NAS), an inhibitor of the enzyme sepiapterin reductase. Inhibition of this pathway typically results in loss of endogenous BH4, depressing the endogenous eNOS activity far below normal and provides an assay to test for restoration of eNOS activity.
Thus, subconfluent HUVECs were seeded in a 24-well plate and grown overnight in EGM2 medium (full growth medium). The next morning, fresh medium was added to the cells (300 μL/well), 3 mM N-acetylserotonin (NAS), an inhibitor of the enzyme sepiapterin reductase (a member of the synthesis pathway for endogenous BH4) was added to the cells to decrease the endogenous BH4 levels. After an incubation of 1.5 hours, 50, 100, or […] BH4 or compound of Example 5, Example 6, Example 7, or Example 9 were added to the cells. The cells were allowed to react with the BH4 or the compound of Example 5, Example 7, or Example 9 for 5-22 hours. The production of NO was then measured as changes in total (nitrite+nitrate) by the Griess reaction subsequent to nitrate reductase treatment. 90 μL of reaction mixture (25 mM Tris-HCL, pH7.4, 1 μM FAD, 1 μM FMN, 100 μM L-Arginin 2.5 mM CaCl2, 1 mM NADPH, 0.04 mg/ml Calmodulin) was mixed with 5 μl of eNOS (15 units/ml) and 5 μl of BH4 or BH4 analogs (1, 10, 100 μM), followed by incubation in a 37° C. water bath for 90 minutes. Then 100 μl of water and 20 μl of the nitrite fluorescent probe DAN (2,3-diaminonaphthalene, 316 μM) were added to each reaction and incubated at room temperature for 10 minutes. The dye DAN reacts with nitrite to yield the fluorescent product naphthotriazole. The reaction was then stopped by adding 10 μl of NaOH (2.8 M), and the fluorescence of the samples was read using excitation frequency 375 nm and emission frequency 415 nm. The percentage of nitrite+nitrate with BH4 or compound of Example 5, Example 7, or Example 9 is shown in FIG. 17 (after 5 hours); FIG. 18 (after 17 hours); and FIG. 19 (after 22 hours). The results for Example 6 are shown in FIG. 20 (after 5 hours) and FIG. 21 (after 20 hours).

[2] = Pharmacokinetics and bioavailability, single intravenous or oral doses, partial Latin square crossover; type: in vivo, male cynomolgus monkeys; conditions: for bioavailability: male, cynomolgus monkey, plasma, po; for Absolute Bioavailability of the BH4 Analog: dihydrochloride; for Val-BH4/(BH4 + BH2 + B), analog remaining in systemic circulation / Val-BH4/BH4, analog remaining in systemic circulation: determined from AUC0-t; for Val-BH4/total biopterin, analog remaining in systemic circulation: from AUC0-t, total biopterin adjusted to BH4 analog
Method: This study was to determine the pharmacokinetics and relative bioavailability of BH4 when given as parent BH4 or an analog of BH4 to male cynomolgus monkeys as single intravenous or oral doses in a partial Latin square crossover design.
Six, male, non-naïve cynomolgus monkeys were fasted overnight prior to dosing through approximately 4 hours postdose. Individual doses were calculated based on body weights recorded on each day of dose administration. Five experimental groups of monkeys were evaluated using a partial Latin square crossover design: Group 1-2 mg/kg BH4 by IV; Group 2-40 mg/kg BH4 by oral gavage; Group 3-2 mg/kg BH4 analog by IV; Group 4-5 mg/kg BH4 analog by oral gavage; Group 5-20 mg/kg BH4 analog by oral gavage. The doses of BH4 analog were prepared as mg/kg equivalents of BH4 (calculated using BH4 and BH4 analog 2HCl molecular weights). The partial Latin square crossover design was used to minimize dose sequence effect on interanimal variability for statistical purposes. The monkeys received their respective dose of BH4 intravenously (2 mL/kg, dissolved in 100 μM ascorbic acid and 5% mannitol in sterile water for injection, SWFI), Example 5 intravenously (2 mL/kg, dissolved in 100 μM ascorbic acid and 5% mannitol in citrate buffer, pH 3) or BH4 or Example 5 by oral gavage (4 mL/kg, dissolved in 100 μM ascorbic acid in SWFI). Prior to use, all intravenous dose formulations were filtered into the final dosing container using a 0.22-micron syringe filter (Millex GS or GV; Millipore).
For intravenous administration, blood (approximately 1 mL) was collected from each animal predose and at 0.083, 0.25, 0.5, 1, 2, 3, 4, 6, 8, 12, 18, and 24 hours postdose. For oral administration, blood (approximately 1 mL) was collected from each animal predose and at 0.25, 0.5, 1, 2, 3, 4, 6, 8, 12, 18, and 24 hours postdose. Blood was collected into tubes containing K2-EDTA anticoagulant, which was maintained in chilled condition, and centrifuged to obtain plasma. Centrifugation began within 30 minutes of collection. Three, 100-μL aliquots of each plasma sample were promptly transferred following centrifugation into individual tubes containing 0.1% (w/v) dithioerythritol (DTE) for storage. Once the plasma aliquot was added, each tube was vortexed briefly to mix then immediately placed on dry ice.

bioavailability ([2]; 5 mg/kg, oral 5 mg/kg (BH4 equivalents), n=6, read-out: Absolute Bioavailability of the BH4 Analog): 36%
bioavailability ([2]; 20 mg/kg, oral 20 mg/kg (BH4 equivalents), n=6, read-out: Absolute Bioavailability of the BH4 Analog): 33%
bioavailability ([2]; 20 mg/kg, oral 5 and 20 mg/kg, read-out: absolute bioavailability of Val-BH4 present in plasma): 33 to 36%
Absolute Bioavailability of the BH4 Analog ([2]; oral 5 mg/kg (BH4 equivalents), n=6, 5 mg/kg): 36.2 (26.3) %
Val-BH4/(BH4 + BH2 + B), analog remaining in systemic circulation ([2]; oral 5 mg/kg, n=6): 36.4 (16.0) %
Val-BH4/BH4, analog remaining in systemic circulation ([2]; oral 5 mg/kg, n=6): 56.3 (25.2) %
Val-BH4/total biopterin, analog remaining in systemic circulation ([2]; oral 5 mg/kg, n=6): 23.5 (5.6) %
Absolute Bioavailability of the BH4 Analog ([2]; oral 20 mg/kg (BH4 equivalents), n=6, 20 mg/kg): 33.2 (29.2) %
Val-BH4/(BH4 + BH2 + B), analog remaining in systemic circulation ([2]; oral 20 mg/kg, n=6): 51.6 (11.6) %
Val-BH4/BH4, analog remaining in systemic circulation ([2]; oral 20 mg/kg, n=6): 81.0 (18.1) %
Val-BH4/total biopterin, analog remaining in systemic circulation ([2]; oral 20 mg/kg, n=6): 40.7 (11.1) %
percent of Val-BH4 remaining in systemic circulation ([2]; oral 5 and 20 mg/kg, based on total biopterin adjusted to Val-BH4): greater than 23.5±5.6%
SMILES: CC(C)[C@H](N)C(=O)O[C@@H](C)[C@H](O)[C@H]1CNc2nc(N)[nH]c(=O)c2N1 [Example 5, 2-Amino-3-methyl-butyric acid 2-(2-amino-4-oxo-3,4,5,6,7,8-hexahydro-pteridin-6-yl)-2-hydroxy-1-methyl-ethyl ester dihydrochloride]
NO production (nitrite+nitrate) [1]: increased NO production in a dose-dependent manner
absorption and distribution of the analog in plasma ([2]; oral 5 mg/kg, FIG. 10): absorbed quickly and was rapidly distributed by 4 hr
